Measured values as given in paper PMC10388362, “Fluorescent Ligands Enable Target Engagement Studies for the Intracellular Allosteric Binding Site of the Chemokine Receptor CXCR2” (Journal of Medicinal Chemistry, 2023).

Experiments:
CXCR1 = target: T1, CXCR1 (Homo sapiens, UniProt P25024); test: Membrane-based NanoBRET saturation assay, selectivity (CXCR1_Nluc membranes); type: binding; conditions: cell-free
T1 construct: host or cells: HEK293T, transient; membrane preparation
T1 sequence (P25024 1-350): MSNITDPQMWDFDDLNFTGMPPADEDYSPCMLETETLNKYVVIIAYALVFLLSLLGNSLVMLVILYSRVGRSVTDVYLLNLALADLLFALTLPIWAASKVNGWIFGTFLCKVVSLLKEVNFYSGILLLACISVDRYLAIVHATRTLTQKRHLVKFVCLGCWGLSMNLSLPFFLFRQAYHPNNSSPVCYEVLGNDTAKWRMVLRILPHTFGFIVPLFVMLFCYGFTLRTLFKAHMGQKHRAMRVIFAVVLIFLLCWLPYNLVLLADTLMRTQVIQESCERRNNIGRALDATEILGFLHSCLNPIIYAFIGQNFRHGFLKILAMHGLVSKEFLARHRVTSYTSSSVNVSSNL
Experimental: (§1) For the establishment of our NanoBRET binding assay, we referred to a recently published protocol.[45] The fluorescent ligands (9a–c) were dissolved in DMSO (1 mM) and further diluted to varying concentrations in an assay buffer (50 mM Na2HPO4, 50 mM KH2PO4, pH 7.4, 1 mg/mL saponin, 5% FBS) and 5 μL of these dilutions were pipetted to a 384-well plate. To determine the total binding, 5 μL of the assay buffer was added to the corresponding wells, while 5 μL of a solution of 3 in the assay buffer (final assay concentration: 1 μM) was used to determine nonspecific binding. Then, 20 μL of the membrane preparations diluted in the assay buffer (2 μg total protein/well) were added and the plates were incubated for 90 min at 37 °C. Subsequently, 5 μL of a furimazine solution (Promega, Mannheim, Germany, final assay dilution: 1:5000) was added to each well (final assay volume: 35 μL) before measuring luminescence with a CLARIOstar microplate reader using 620/10 and 475/30 nm emission filters after 5 min of incubation in the dark. Bioluminescence resonance energy transfer (BRET) was determined as the ratio of acceptor fluorescence and donor luminescence. The algorithms for one-site saturation binding from PRISM9.5 (GraphPad) were utilized to analyze total, nonspecific, and specific binding. Specific binding signals were calculated as a difference of total and nonspecific binding. If required, netBRET values were calculated as the difference between total BRET values and the values obtained in the absence of a fluorescent ligand. For selectivity studies with CCR2, CCR7, CCR9, and CXCR1, we modified the procedure described above.

CCR7 = target: T2, CCR7 (Homo sapiens, UniProt P32248); test: Membrane-based NanoBRET saturation assay, selectivity (CCR7_GSSG_Nluc membranes)
T2 construct: host or cells: HEK293T; membrane preparation
T2 sequence (P32248 25-378): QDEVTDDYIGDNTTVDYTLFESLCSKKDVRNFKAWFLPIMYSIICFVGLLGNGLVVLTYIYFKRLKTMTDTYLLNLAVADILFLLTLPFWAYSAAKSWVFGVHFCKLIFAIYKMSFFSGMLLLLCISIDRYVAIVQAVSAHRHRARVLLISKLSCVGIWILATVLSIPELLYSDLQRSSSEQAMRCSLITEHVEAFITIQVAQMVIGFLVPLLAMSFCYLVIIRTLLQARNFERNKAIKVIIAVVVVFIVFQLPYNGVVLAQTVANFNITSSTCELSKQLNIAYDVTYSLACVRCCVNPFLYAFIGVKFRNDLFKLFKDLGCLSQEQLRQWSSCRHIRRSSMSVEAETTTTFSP
Experimental: as §1, with “The algorithms for one-site saturation binding from PRISM9.5 (GraphPad) were utilized to analyze total, nonspecific, and specific binding.” left out, “For selectivity studies with CCR2, CCR7, CCR9, and CXCR1, we modified the procedure described above.” left out

Which results are given for Cc1ccc([C@H](Nc2c(Nc3cccc(C(=O)NCc4cn(CCOCCOCCOCCNC(=O)c5ccc(C(=O)[O-])c(-c6c7ccc(=[N+](C)C)cc-7oc7cc(N(C)C)ccc67)c5)nn4)c3O)c(=O)c2=O)C(C)(C)C)o1 [9a, (R)-4-((2-(2-(2-(2-(4-((3-((2-((2,2-Dimethyl-1-(5-methylfuran-2-yl)propyl)amino)-3,4-dioxocyclobut-1-en-1-yl)amino)-2-hydroxybenzamido)methyl)-1H-1,2,3-triazol-1-yl)ethoxy)ethoxy)ethoxy)ethyl)carbamoyl)-2-(6-(dimethylamino)-3-(dimethyliminio)-3H-xanthen-9-yl)benzoate]?
Kd (CXCR1; CXCR1_Nluc membranes): 198 ± 29 nM; selectivity for CXCR2 compared to CXCR1 (CXCR1; from Kd values): ~50 fold; binding to CCR7 (CCR7): no significant binding
